Data on 6 compounds can be found in article PMC6270026, “Antibacterial and Herbicidal Activity of Ring-Substituted 2-Hydroxynaphthalene-1-carboxanilides” (Molecules, 2013).

In brackets after ≈: the same amount, converted by molar mass. Read-outs that look alike come from different tables or passages of the source.

Series [1] deals with photosynthetic electron transport (PET) in spinach chloroplasts. Briefly: Inhibition of photosynthetic electron transport (PET) in spinach chloroplasts. In kind it is biochemical, Spinacia oleracea L. Conditions: DCPIP photoreduction. The protocol:
Chloroplasts were prepared from spinach (Spinacia oleracea L.) according to Masarovicova and Kralova. The inhibition of photosynthetic electron transport (PET) in spinach chloroplasts was determined spectrophotometrically (Genesys 6, Thermo Electron Scientific Instruments, Madison, WI, USA), using an artificial electron acceptor 2,6-dichlorophenol-indophenol (DCPIP) according to Kralova et al., and the rate of photosynthetic electron transport was monitored as a photoreduction of DCPIP. The measurements were carried out in phosphate buffer (0.02 mol/L, pH 7.2) containing sucrose (0.4 mol/L), MgCl2 (0.005 mol/L) and NaCl (0.015 mol/L). The chlorophyll content was 30 mg/L in these experiments and the samples were irradiated (~100 W/m^2 with 10 cm distance) with a halogen lamp (250 W) using a 4 cm water filter to prevent warming of the samples (suspension temperature 22 °C). The studied compounds were dissolved in DMSO due to their limited water solubility. […] The inhibitory efficiency of the studied compounds was expressed by IC50 values, i.e., by molar concentration of the compounds causing 50% decrease in the oxygen evolution rate relative to the untreated control.

The next series relates to M. kansasii DSM 44162. Briefly: In vitro antimycobacterial evaluation (broth dilution MIC). Type of series: cell-based. The conditions noted are these: Mycobacterium kansasii, DSM44162, 168 h; M. kansasii DSM 44162, 7 days, 37 °C.
Series [2] can be described thus: Lipophilicity determination by RP-HPLC (capacity factor log k). Type of series: physicochemical. The conditions noted are these: isocratic, MeOH 60%/H2O 40%, C18. The protocol:
A HPLC system Agilent 1200 equipped with DAD detector (Agilent, Santa Clara, CA, USA) was used. A chromatographic column Symmetry® C18 5 μm, 4.6 × 250 mm, Part No. WAT054275, (Waters Corp., Milford, MA, USA) was used. The HPLC separation process was monitored and evaluated by EZChrom Elite software ver. 3.3.2 (Agilent). Isocratic elution by a mixture of MeOH p.a. (60%) and H2O-HPLC Mili-Q grade (40%) as a mobile phase was used. The total flow of the column was 1.0 mL/min, injection 20 μL, column temperature 40 °C and sample temperature 10 °C. The detection wavelength 210 nm was chosen. The KI methanolic solution was used for the dead time (tD) determination. Retention times (tR) were measured in minutes. The capacity factors k were calculated according to formula k = (tR − tD)/tD, where tR is the retention time of the solute, whereas tD denotes the dead time obtained using an unretained analyte. Log k, calculated from the capacity factor k, is used as the lipophilicity index converted to log P scale.

In series [3] the test system is Mycobacterium marinum CAMP 5644. Briefly: In vitro antimycobacterial evaluation (broth dilution MIC). Type of series: cell-based. The conditions noted are these: for MIC: Mycobacterium marinum, CAMP5644, 504 h, M. marinum CAMP 5644, 21 days, 28 °C. For orientation: Broth dilution looks for growth in wells or tubes with falling amounts of substance.
Series [4] deals with Mycobacterium avium subsp. paratuberculosis (CIT03). Briefly: In vitro antimycobacterial evaluation (alamarBlue MIC). Type of series: cell-based. The conditions noted are these: 264 h, M. avium paratuberculosis CIT03, 11 days, 37 °C. Here is the method: A well characterised clinical isolate of Mycobacterium avium subsp. paratuberculosis (CIT03) was grown in Middlebrook broth (MB), supplemented with Oleic-Albumin-Dextrose-Catalase supplement (OADC, Becton, Dickinson & Comp., Franklin Lakes, NJ, USA) and mycobactin J (2 µg/mL). Identification of this isolate was performed using biochemical and molecular protocols. At log phase growth, a culture sample (10 mL) was centrifuged at 15,000 rpm/20 min using a bench top centrifuge (Model CR 4-12, Jouan Inc., Winchester, VA, USA). Following removal of the supernatant, the pellet was washed in fresh Middlebrook 7H9GC broth and re-suspended in fresh supplemented MB (10 mL). The turbidity was adjusted to match McFarland standard No. 1 (3 × 10^8 cfu) with MB broth. A further 1:20 dilution of the culture was then performed in MB broth. The antimicrobial susceptibility of the mycobacterial species was investigated in a 96-well plate format. In these experiments, sterile deionised water (300 µL) was added to all outer-perimeter wells of the plates to minimize evaporation of the medium in the test wells during incubation. Each evaluated compound (100 µL) was incubated with each of the mycobacterial species (100 µL). Dilutions of each compound were prepared in duplicate. For all synthesized compounds, final concentrations ranged from 1,000 µg/mL to 8 µg/mL. All compounds were prepared in DMSO and subsequent dilutions were made in supplemented MB. The plates were sealed with parafilm and incubated at 37 °C, for 11 days in the case of M. avium paratuberculosis. Following incubation, a 10% addition of alamarBlue (AbD Serotec, Kidlington, UK) was mixed into each well and readings at 570 nm and 600 nm were taken, initially for background subtraction and subsequently after 24 h re-incubation. The background subtraction is necessary for strongly coloured compounds, where the colour may interfere with the interpretation of any colour change. For non-interfering compounds, a blue colour in the well was interpreted as an absence of growth and a pink colour was scored as growth. The minimum inhibitory concentrations (MICs) were initially defined as the lowest concentration which prevented a visual colour change from blue to pink.
The MICs were defined as the lowest concentration of the compound at which no visible bacterial growth was observed. The MIC value is routinely and widely used in bacterial assays and is a standard detection limit according to the Clinical and Laboratory Standards Institute (CLSI). Isoniazid (Sigma-Aldrich) was used as reference antimycobacterial drug.
On the technique in general: Resazurin is reduced to fluorescent resorufin, in cell work by metabolically active cells.

In series [5] the test system is human monocytic leukemia THP-1 cells. Briefly: In vitro cytotoxicity assay (LDH). Type of series: cell-based. The conditions noted are these: treatment with 20 µmol/L, 24 h. Here is the method:
Human monocytic leukemia THP-1 cells were obtained from the European Collection of Cell Cultures (ECACC, Salisbury, UK; Methods of characterization: DNA Fingerprinting (Multilocus probes) and isoenzyme analysis). These cells were routinely cultured in RPMI 1640 (Lonza, Verviers, Belgium) medium supplemented with 10% fetal bovine serum (FBS, Sigma-Aldrich), 2% L-glutamine, 1% penicillin and streptomycin (Lonza, Verviers, Belgium) at 37 °C with 5% CO2. Cells were passaged at approximately 1 week intervals. Cells were routinely tested for the absence of mycoplasma (Hoechst 33258 staining method). The tested compounds were dissolved in DMSO (Sigma-Aldrich) and added in five increasing concentrations to the cell suspension in the culture medium. The maximum concentration of DMSO in the assays never exceeded 0.1%. Subsequently, the cells were incubated for 24 h at 37 °C with 5% CO2 to various compound concentrations ranging from 0.37 to 20 μmol/L in RPMI 1640 medium. Cell toxicity was determined using a Cytotoxicity Detection Kit^PLUS Lactate dehydrogenase (LDH) assay kit (Roche Diagnostics, Mannheim, Germany) according to the manufacturer’s instructions, as described previously. […] All data were evaluated using GraphPad Prism 5.00 software (GraphPad Software, San Diego, CA, USA).

Details of series [6]: method as in PMID 23884130. Conditions: 3-hydroxynaphthalene-2-carboxanilide series; cited from earlier work.
Series [7] relates to human monocytic leukemia THP-1 cells. Conditions: assessed in this line formerly; cited from earlier work.
In series [8] the test system is methicillin-resistant Staphylococcus aureus SA 3202. Details: method as in PMID 23884130. Conditions: previous study, all the MRSA strains; cited from earlier work.
Series [9] relates to methicillin-resistant Staphylococcus aureus SA 630. Details: method as in PMID 23884130. Conditions: previous study, all the MRSA strains; cited from earlier work.
The test system of series [10] is methicillin-resistant Staphylococcus aureus (MRSA) 63718. Further details: method as in PMID 23884130. The conditions noted are these: previous study, all the MRSA strains; cited from earlier work.
The subject of series [11] is Staphylococcus aureus ATCC 29213. Details: method as in PMID 23884130. The conditions noted are these: previous study; cited from earlier work.
The subject of series [12] is methicillin-resistant Staphylococcus aureus SA 630. Briefly: In vitro antibacterial susceptibility testing (broth dilution MIC). The conditions noted are these: MRSA, clinical isolate SA 630, 24 h, 37 °C. Type of series: cell-based. Here is the method: (§1) The synthesized compounds were evaluated for in vitro antibacterial activity against representatives of multidrug-resistant bacteria, clinical isolates of methicillin-resistant Staphylococcus aureus (MRSA) 63718, SA 630 and SA 3202 that were obtained from the National Institute of Public Health, Prague, Czech Republic. Staphylococcus aureus ATCC 29213 was used as a reference and quality control strain. Ampicillin (Sigma-Aldrich) was used as the standard. Prior to testing, each strain was passaged onto nutrient agar (Oxoid, Hampshire, UK) with 5% of bovine blood, and bacterial inocula were prepared by suspending a small portion of bacterial colony in sterile phosphate buffered saline (pH 7.2–7.3). The cell density was adjusted to 0.5 McFarland units using a densitometer (Densi-La-Meter, LIAP, Riga, Latvia). The final inoculum was made by 1:20 dilution of the suspension with the Mueller-Hinton broth (MH broth). […] The final concentrations of the evaluated compounds ranging from 256 μg/mL to 0.008 μg/mL. The broth dilution micro-method modified according to NCCLS guidelines in MH broth was used to determine the minimum inhibitory concentration (MIC). Drug-free controls, sterility controls and controls consisted of MH broth and DMSO alone were included. The determination of results was performed visually after 24 h of static incubation in the darkness at 37 °C in an aerobic atmosphere. The MICs were defined as the lowest concentration of the compound at which no visible bacterial growth was observed.

In series [13] the test system is methicillin-resistant Staphylococcus aureus SA 3202. The series is described as above. Type of series: cell-based. The conditions noted are these: MRSA, clinical isolate SA 3202, 24 h, 37 °C, read-out: MIC MRSA 3202. The protocol:
as §1

In series [14] the test system is spinach chloroplasts (photosystem II). Briefly: Chlorophyll a and aromatic amino acids fluorescence in spinach chloroplasts. In kind it is biochemical, Spinacia oleracea L. The protocol: The fluorescence emission spectra of chlorophyll a (Chla) and aromatic amino acids (AAA) in spinach chloroplasts were recorded on fluorescence spectrophotometer F-2000 (Hitachi, Tokyo, Japan) using excitation wavelength λex = 436 nm for monitoring fluorescence of Chla and λex = 275 nm for monitoring AAA fluorescence, excitation slit 20 nm and emission slit 10 nm. The samples were kept in the dark for 2 min before measuring. The phosphate buffer used for dilution of the chloroplast suspension was the same as described above. Due to low aqueous solubility the compounds were added to chloroplast suspension in DMSO solution. The DMSO concentration in all samples was the same as in the control (10%). The chlorophyll concentration in chloroplast suspension was 10 mg/L.

The test system of another series is M. smegmatis ATCC 700084. Briefly: In vitro antimycobacterial evaluation (broth dilution MIC). Type of series: cell-based, Mycobacterium smegmatis. The conditions noted are these: Mycolicibacterium smegmatis, ATCC700084, 72 h; M. smegmatis ATCC 700084, 3 days, 37 °C.

`O=C(Nc1cccc([N+](=O)[O-])c1)c1c(O)ccc2ccccc12` [Compound 8b, 2-Hydroxy-N-(3-nitrophenyl)naphthalene-1-carboxamide]: in [1], half-maximal inhibition (IC50) was put at 86.4 µM. Besides, the MIC – broadly, the smallest concentration in the dilution series that meets the test's criterion for growth inhibition – against M. kansasii DSM 44162 was 104 µM (≈ 32.1 µg/mL); in series [3] it was about 52 µM (≈ 16 µg/mL); in series [4] it was 405 µM (≈ 125 µg/mL). In [2], this compound showed a log k of 0.9187. The “fold higher activity against M. marinum than isoniazid” value in series [3] (ratio of MIC to isoniazid) is “about 9 fold”. In addition, the “lethal effect on THP-1 cells” value in [5] was “did not lead to significant lethal effects”.
Regarding `O=C(c1cc(O)cc2ccccc12)N(c1ccccc1)c1ccccc1` [3-hydroxy-N-phenylnaphthalene-1-carboxanilide], the log k in series [6] is 0.6310.
Regarding `CC[C@@]1(O)C(=O)OCc2c1cc1n(c2=O)Cc2cc3ccccc3nc2-1` [camptothecin], in series [7], the LD50 is reported as 0.16 ± 0.07 µmol/L.
Regarding `COc1ccccc1NC(=O)c1cc2ccccc2cc1O` [3-hydroxy-N-(2-methoxyphenyl)naphthalene-2-carboxamide], in [8], the “MIC against MRSA strains (SA 3202)” value is 55.0 µM (≈ 16.1 µg/mL). The “MIC against MRSA strains (SA 630)” value in series [9] was 55.0 µM (≈ 16.1 µg/mL). In addition, the “MIC against MRSA strains (MRSA 63718)” value in series [10] is 55.0 µM (≈ 16.1 µg/mL). Further, the log k in series [6] is recorded as 0.69. For the same compound, in [11], the “MIC against S. aureus” value was 55.0 µM (≈ 16.1 µg/mL).
Take `O=C(Nc1ccccc1[N+](=O)[O-])c1c(O)ccc2ccccc12` [Compound 8a, 2-Hydroxy-N-(2-nitrophenyl)naphthalene-1-carboxamide]: the IC50 (in general, the concentration that inhibits the measured activity by half) in series [1] is 121 µM. For the same compound, the MIC in series [12] worked out at 104 µM (≈ 32.1 µg/mL); in series [13] it was 52 µM (≈ 16 µg/mL); against M. kansasii DSM 44162, 51.9 µM (≈ 16 µg/mL); in series [3] it was 104 µM (≈ 32.1 µg/mL); in series [4] it was 195 µM (≈ 60.1 µg/mL). For the same compound, the log k in series [2] was found to be 0.8501. The “lethal effect on THP-1 cells” value in series [5] was “did not lead to significant lethal effects”.
`O=C(Nc1ccccc1)c1c(O)ccc2ccccc12` [Compound 1, 2-Hydroxy-N-phenylnaphthalene-1-carboxamide] gave an IC50 in [1] of 28.9 µM. In [14] (c = 0.012-0.117 mmol/L, λex 275 nm), the “aromatic amino acids (AAA) fluorescence at 334 nm” value is “strong decline”. For the same compound, the “chlorophyll a fluorescence emission band at 686 nm” value in series [14] (c = 0.059-0.468 mmol/L, λex 436 nm) is reported as “decreased intensity”. Also, the MIC against M. kansasii DSM 44162 was found to be 15.2 µM (≈ 4 µg/mL); in [3], 60.7 µM (≈ 16 µg/mL); against M. smegmatis ATCC 700084 it was 486 µM (≈ 128 µg/mL); in series [4], 950 µM (≈ 250 µg/mL). In series [2], the log k was determined as 1.3016. For the same compound, in series [5], the “lethal effect on THP-1 cells” value is “did not lead to significant lethal effects”.
